Test results reported in US20110280940A1, “Di-Vanilloyl And Tri-Vanilloyl Derivatives For Use In Anti-Cancer Therapy” (priority 2008, published 2011).
pIC50: −log10 of the molar value. Where two headings read alike, the source gives them in different places.

Tests used:
DYRK1A kinase = target: T1, DYRK1A kinase (Homo sapiens, UniProt Q13627); assay: Radiometric protein kinase assay (33 PanQinase), DYRK-1A; format: biochemical; conditions: for pIC50: dose-response 0-100 μM, n=3, read-out: IC50: Concentration of drug needed in order to inhibit kinase activity by 50%, DYRK-1A; for inhibition at 57 µM: read-out: inhibition of DYRK-1A activity
T1 construct: made in house
Protocol: (§1) The kinase inhibition profile of DLT11 at 20 μM was determined using 250 protein kinases. […] A radiometric protein kinase assay (33 PanQinase®Activity Assay) was used for measuring the kinase activity of 250 protein kinases. All kinase assays were performed in 96-well flashPlates™ from Perkin Elmer (Boston, Mass., USA) in a 50 μl reaction volume. The reaction cocktail was pipetted in 4 steps in the following order: • 10 μl of non-radioactive ATP solution (in H2O) • 25 μl of assay buffer/[γ-33P]-ATP mixture • 5 μl of test sample in 10% DMSO • 10 μl of enzyme/substrate mixture
as §1, with “of DLT95-Cl” for “of DLT11”, “using 255” for “using 250”
The assay for all enzymes contained 60 mM HEPES-NaOH, pH 7.5, 3 mM MgCl2, 3 mM MnCl2, 3 μM Na-orthovanadate, 1.2 mM DTT, 50 μg/ml PEG20000, 1 μM ATP/[γ-33P]-ATP (approx. […] per well), protein kinase, and substrate. All PKC assays (except the PKC-mu and the PKC-nu assay) additionally contained 1 mM CaCl2, 4 mM EDTA, 5 μg/ml Phosphatidylserine and 1 μg/ml 1,2-Dioleyl-glycerol. The MYLK2, CAMK1D, CAMK2A, CAMK2B, CAMK2D, CAMK4, CAMKK2, DAPK2 and EEF2K assays additionally contained 1 μg/ml Calmodulin and 0.5 mM CaCl2. The PRKG1 and PRKG2 assays additionally contained 1 μM cGMP.
The protein kinases were expressed either in Sf9 insect cells or in E. coli as recombinant GST-fusion proteins or as His-tagged proteins. All kinases were produced from human cDNAs. Kinases were purified by affinity chromatography using either GSH-agarose (Sigma) or Ni-NTH-agarose (Qiagen). The purity of the protein kinases was examined by SDS-PAGE/coomassie staining. The identity of the protein kinases was checked by mass spectroscopy.
The reaction cocktails were incubated at 30° C. for 60 minutes. The reaction was stopped with 50 μl of 2% (v/v) H3PO4, plates were aspirated and washed two times with 200 μl 0.9% (w/v) NaCl. All assays were performed with a BeckmanCoulter Biomek 2000/SL robotic system.
Incorporation of ^33Pi (counting of “cpm”) was determined with a microplate scintillation counter (Microbeta, Wallac).
For each kinase, the median value of the cpm of three wells with complete reaction cocktails, but without kinase, was defined as “low control” […]. This value reflects unspecific binding of radioactivity to the plate in the absence of protein kinase but in the presence of the substrate. Additionally, for each kinase the median value of the cpm of three other wells with the complete reaction cocktail, but without any compound, was taken as the “high control”, i.e. full activity in the absence of any inhibitor […]. The difference between high and low control of was taken as 100% activity for each kinase. As part of the data evaluation the low control value of each kinase was subtracted from the high control value as well as from their corresponding “compound values”. The residual activity (in %) for each compound well was calculated by using the following formula: Res. Activity (%)=100×[(cpm of compound−low control)/(high control−low control)]

VM48 melanoma cells = assay: MTT colorimetric assay, overall cell growth, VM48; format: cell-based, human; conditions: Homo sapiens, read-out: In Vitro IC50 Growth Inhibitory Values, VM48
U373-MG glioma cell line = assay: Cellular imaging (quantitative videomicroscopy), global growth ratio, U373; format: cell-based; conditions: Homo sapiens, 72 h, read-out: Global Grow Ratio Treated/Ct (GGR T/Ct) determined by Video Quantitative microscopy, U373

| pIC50 (VM48 melanoma cells; MTT, 72 hours of incubation) | inhibition of Dyrk1A (DYRK1A kinase; 20 μM (FIG. 3)) [%] | Structure (SMILES) | pIC50 (DYRK1A kinase) | inhibition at 57 µM (DYRK1A kinase) [%] | pIC50 (VM48 melanoma cells; 72 h) | activity at 50 µM (U373-MG glioma cell line) [%] | activity at 50 µM (U373-MG glioma cell line; 50 μM) [%] |
| --- | --- | --- | --- | --- | --- | --- | --- |
|  |  | O=C(OCc1cc(COC(=O)c2ccc(O)c(F)c2)cc(COC(=O)c2ccc(O)c(F)c2)c1)c1ccc(O)c(F)c1 [DLT95-F, [3,5-bis[(4-hydroxy-3-fluoro-benzoyl)oxymethyl]phenyl]methyl 4-hydroxy-3-fluoro-benzoate] | 5.15 | ≥ 50 | 4.21 |  |  |
|  |  | COc1cc(C(=O)OCc2cc(COC(=O)c3ccc(O)c(OC)c3)cc(COC(=O)c3ccc(O)c(OC)c3)c2)ccc1O [DLT95, [3,5-bis[(4-hydroxy-3-methoxy-benzoyl)oxymethyl]phenyl]methyl 4-hydroxy-3-methoxy-benzoate] | < 4.00 |  |  | 10 |  |
|  |  | O=C(OCc1cc(COC(=O)c2ccc(O)c(Cl)c2)cc(COC(=O)c2ccc(O)c(Cl)c2)c1)c1ccc(O)c(Cl)c1 [DLT95-Cl, [3,5-bis[(4-hydroxy-3-chloro-benzoyl)oxymethyl]phenyl]methyl 4-hydroxy-3-chloro-benzoate] | 5.49 | ≥ 50 | 4.49 |  |  |
| < 3.00 |  | COc1cc(C(=O)O)ccc1O [vanillic acid, reference compound] | < 4.00 |  |  |  |  |
| 4.25 | 5 | COc1cc(C(=O)OCCCCCCOC(=O)c2ccc(O)c(OC)c2)ccc1O [DLT11, Hexane-1,6-diyl bis-(4-hydroxy-3-methoxybenzoate)] |  |  |  |  | 20 |

| Structure (SMILES) | pIC50 (VM48 melanoma cells; MTT, 72 hours of incubation) | inhibition of Dyrk1A (DYRK1A kinase; 20 μM (FIG. 3)) [%] | pIC50 (DYRK1A kinase) | inhibition at 57 µM (DYRK1A kinase) [%] | pIC50 (VM48 melanoma cells; 72 h) | activity at 50 µM (U373-MG glioma cell line) [%] | activity at 50 µM (U373-MG glioma cell line; 50 μM) [%] |
| --- | --- | --- | --- | --- | --- | --- | --- |
| COc1cc(C(=O)OCCOC(=O)c2ccc(O)c(OC)c2)ccc1O [DLT1, Ethane-1,2-diyl bis-(4-hydroxy-3-methoxybenzoate)] | 4.28 |  |  |  |  |  | 30 |
